From US11576901B2, “Methods for treating viral infection” (HOWARD UNIVERSITY, priority 2016, dated 2023)

Legend:
HSV-1 [1] = assay: Western assay of IE, DE and L HSV-1 proteins (ICP0, ICP8, gD) in infected Hep-2 cells; format: cell-based; details: 100 μM, 24 hours pretreatment, HSV-1 0.01 to 1.25 MOI, twenty hours after infection, FIG. 6
Excerpt: Compounds in accordance with General Formula 1, including derivatives in accordance with any of General Formulae 1-1 to 1-20, can be evaluated for the capacity to inhibit triggered expression of at least a portion of a virus genome containing an IRES sequence by administering the compound, or a pharmaceutically acceptable salt of the compound, to a cell culture and exposing the cell culture to a HSV-1 infection. After a sufficient amount of time, the culture can be examined to determine the expression of IE, DE and L genes. If the amount of at least one protein corresponding to an IE gene and at least one protein corresponding to a DE and/or L gene within the viral genome is diminished compared to that within an identical infected cell culture not treated with the compound or its salt, then the compound would be capable of inhibiting triggered expression of at least a portion of the viral genome. […]
Compounds in accordance with General Formula 1, including derivatives in accordance with any of General Formulae 1-1 to 1-20, or pharmaceutically acceptable salts thereof, can be assessed for the ability to inhibit triggered expression of at least a portion of the HSV-1 genome by infecting Hep-2 cells with the HSV-1 virus. […]

HSV-1 [2] = assay: qPCR of ICP-0 mRNA in HSV-1 infected Hep-2 cells; format: cell-based; details: 100 μM, 24 hours pretreatment, 0, 6, 12 and 24 hours after infection, vs DMSO, FIG. 8
Excerpt: The inhibition of triggered expression of at least a portion of the HSV-1 genome and the inhibited proliferation of HSV-1, which may be the result of the former, indicate that compounds in accordance with General Formula 1, including derivatives in accordance with any of General Formulae 1-1 to 1-20, can treat viral infections. The treatment provided by compounds in accordance with General Formula 1, including derivatives in accordance with any of General Formulae 1-1 to 1-20, may be the result of either inhibition of transcription of viral mRNAs containing an IRES or the inhibited expression of viral proteins encoded by such within the IRES reading frame of such an mRNA. Determining whether mRNA transcription or protein expression is being inhibited can be accomplished by assessing the amount of mRNA containing an IRES is diminished by treatment with a compound in accordance with General Formula 1, including derivatives in accordance with any of General Formulae 1-1 to 1-20. FIG. 8 reports the amount of mRNA of the IE gene ICP-0 detected in Hep-2 cells following treatment with SD-29.
Hep-2 cells were pretreated with either DSMO as a control, 100 μM SD-29 or 100 μM SD29-12. After 24 hours of pretreatment, the Hep-2 cells were infected with HSV-1. At 0, 6, 12 and 24 hours after infection, the total RNA within the cells was isolated. […]

Nn1c(S)nnc1-c1ccc(F)cc1 [SD-29]
expression of IE, DE and L HSV-1 proteins (triggered expression) (HSV-1 [1]): significantly inhibited triggered expression
ICP-0 mRNA level / transcription of IE genes (HSV-1 [2]): does not inhibit transcription of mRNA corresponding to IE genes
